From patent US9216956B2, “Deuterium-enriched 4-hydroxy-5-methoxy-N,1-dimethyl-2-oxo-N-[(4-trifluoro-methyl)phenyl]-1,2-dihydroquinoline-3-carboxamide” (ACTIVE BIOTECH AB, priority 2011, dated 2015)
≈ marks a conversion by molar mass, not a printed value. Where “and” joins values, the source holds several entries; their conditions need not be identical. Identical values can stand only once.

Experiments:
[1] = system: AhR (Aryl hydrocarbon Receptor) mediated induction of CYP1A1; test: TV-cell assay: luciferase gene reporter assay for AhR mediated induction of CYP1A1 in TV101L (HepG2) cells; type: cell-based, human; settings: TV-cell assay
Description: (§1) ABR-215050 was tested with respect to its CYP1A inducing capability in vitro in a TV-cell assay. This assay is a luciferase gene reporter assay developed for the measurement of AhR (Aryl hydrocarbon Receptor) mediated induction of CYP1A. Human CYP1A promoters and 5′-flanking sequences were cloned into firefly luciferase expression vectors and stably integrated into the human hepatoma cell line, HepG2 (9). The isolated cell line was renamed TV101L.
(§2) The mechanism for transcription of CYP1A1 involves the binding of the inducer to the Ah receptor followed by a translocation of the ligand-Ah-receptor complex to the nucleus, where it binds to specific enhancer sequences in the 5′-flanking region of the CYP1A1 gene. These sequences are referred to as xenobiotic responsive elements (XREs).
(§3) A luciferase gene reporter assay was used for the measurement of AhR mediated induction of CYP1A1. Human CYP1A1 promoters and 5′-flanking sequences were cloned into firefly luciferase expression vectors and stably integrated into the human hepatoma cell line, HepG2 (8). The isolated cell line was renamed TV101L.
(§4) The cells were seeded in 96 well tissue culture plates 24-48 hours prior to treatment with the test compound. After the addition of ABR-215050 at a concentration of 1, 10 and 100 μM, the cells were further incubated for 12-24 hours. The cells were harvested by the addition of lysis buffer followed by a freezing/thawing cycle. An enzymatic assay was used for the determination of luciferase activity.
(§5) The same assay as used for ABR-215050 was used. The concentrations of ABR-215691 that were used and the results obtained, expressed as fold induction of luciferase expression, are shown in Table 4 and in FIG. 1.

Water solubility = type: physicochemical; settings: for solubility: water, pH 7, aqueous buffer
From the text: The water solubility of ABR-215050 and of its metabolites also was investigated. It is a well-known fact that metabolism in general aims to transform compounds to more water soluble entities (10), which mostly decreases toxicity but also facilitates renal elimination. […]

[2] = cited from earlier work
[3] = system: CYP1A1 (AhR mediated induction); test: TV-cell assay: luciferase gene reporter assay for AhR mediated induction of CYP1A1 in TV101L (HepG2) cells; type: cell-based, human; settings: human, TV101L cells, read-out: Fold induction of luciferase expression
Description: as §1, §2, §3, §4, §5

[4] = In vivo pharmacokinetics in rat: plasma levels of parents and amide-N demethyl metabolite after 1:1 mixture; settings: plasma, oral, peroral 2.5 mg/kg of each compound (1:1 mixture), read-out: Plasma level
From the text: Therefore, the pharmacokinetic characteristics of the amide-N methyl deuterated ABR-215050 (herein below referred to as ABR-215050-dx), wherein the amide-N methyl moiety was tri-deuterated, compared to the non-deuterated parent compound were studied in rat. […] In other words: relative to ABR-215050, the in vivo formation of ABR-215691 was reduced to only 25% when ABR-215050-dx was used.
A deuterated (also referred to as deuterium-enriched) ABR-215050 was synthesized, wherein the amide-N methyl moiety was trideuterated (ABR-215050-dx). This deuterated compound was diluted with non-deuterated ABR-215050 to a molar ratio of 1:1. The 1:1 equivalent molar mixture was administrated to rats in an in vivo experiment. Because of additional 13-carbon labeling in the quinoline scaffold, the formed amide-N demethyl metabolites could be measured selectively by means of HPLC-MS (High performance Liquid Chromatography with Mass Spectrometric detection). In Table 5, the plasma levels of ABR-215050-dx and ABR-215050 (in nM) measured in 4 different rats are shown, as well as the ratio of these two compounds.

[5] = phase II, cited from earlier work
CYP1A2 = test: In vivo CYP1A2 induction in rat, MROD activity of liver microsomes
Description: (§6) The in vivo induction of CYP1A1 and CYP1A2 after repeated administration of ABR-215050 and of ABR-215050-dx, respectively, was studied in rat.
(§7) Test preparations B and C and blank preparation A were made as follows: For preparation B, ABR-215050 was dissolved in NaOH and sterile water at a concentration of 0.5 mg/mL. The pH of the solution was adjusted to pH 7.4-8.5. Preparation C was made in the same way, using ABR-215050-dx. Preparation A was a blank containing only water. The preparations were stored in a refrigerator for a maximum of one week before use.
(§8) On arrival at the laboratory, the test animals were 9 weeks old Sprague Dawley male rats having a body weight of 250 g. They were divided into 3 groups and were allowed to acclimatize for at least 7 days before the test. During the whole acclimatization and test period, the animals received water and feed (Labfor R70, form Kimstad, Sweden) ad libitum, and were kept under a 12 hours dark/12 hours light cycle, at a temperature of 20±2° C. and a relative humidity of 50±15%.
(§9) Before administration of any test preparation, the body weight of each animal was measured and the individual dose to be administered to an animal was determined based on the weight of the animal. Administration was performed perorally during 4 days, cf.
(§10) At 24 h after administration of the final dose, the animals were weighed and from each animal a final blood sample was withdrawn for a pharmacokinetic analysis. The animals then were euthanized and from each one the liver was withdrawn, weighed, and immediately frozen in crushed dry ice. The livers then were stored at −70° C. until preparation of microsomes.
(§11) Microsomes were prepared according to the method M-0287 “Preparation of subcellular fractions from animal tissues” and then kept at −70° C. until analysis.
(§12) The total protein concentration of the microsomal fraction was determined according to the method M-0289 “Determination of Protein according to Hartree”.

CYP1A1 = test: In vivo CYP1A1 induction in rat, EROD activity of liver microsomes
Description: as §6, §7, §8, §9, §10, §11, §12

[6] = group mean, 1 mg/kg perorally days 1-4
[7] = individual rat, 1 mg/kg perorally days 1-4, liver microsomes 24 h after final dose, 1 mg/kg
[8] = individual rat, versus water group

COc1cccc2[nH]c(=O)c(C(=O)N(C)c3ccc(C(F)(F)F)cc3)c(O)c12 [ABR-219694]
CYP1A induction (in words) [1]: not to induce CYP1A | water solubility (in words) (Water solubility): highly water soluble

COc1cccc2c1c(O)c(C(=O)N(C)c1ccc(C(F)(F)F)cc1)c(=O)n2C [ABR-215050, 4-hydroxy-5-methoxy-N,1-dimethyl-2-oxo-N-[(4-trifluoromethyl)phenyl]-1,2-dihydroquinoline-3-carboxamide, reference compound]
steady state plasma levels ([2]; 1-10 mg/kg/day via drinking water): 0.4 to 1 µM | plasma half-life ([2]; in vivo): 3.4 h | CYP1A induction (in words) [1]: did not induce CYP1A | fold induction at 1 µM ([3]; 12-24 hours): 5.2 | fold induction at 10 µM ([3]; 10 μM, 12-24 hours): 7.3 | fold induction at 100 µM ([3]; 100 μM, 12-24 hours): 11.8 | solubility (Water solubility): 500 µg/mL (≈ 1230 µM) | concentration at 1 h ([4]; rat No 1, 1 h): 13.8 µM | concentration at 2 h ([4]; rat No 2, 2 h): 13.9 µM | concentration at 3 h ([4]; rat No 3, 3 h): 7.38 µM | concentration at 4 h ([4]; rat No 4, 4 h): 17.8 µM | tolerability ([5]; patients): generally well tolerated | median progression free survival ([5]; patients, placebo 3.2 months (p=0.0009)): 7.6 months | fraction of patients with disease progression during the six month period ([5]; placebo 66% (p<0.0001)): 31% | CYP1A2 activity (MROD), Mean (CYP1A2; [6]): 334 pmol/mg prot/min | mean fold induction of CYP1A2 (CYP1A2; group mean, versus water group): 17 | CYP1A2 activity (MROD) (CYP1A2; [7]): 311 pmol/mg prot/min and 357 pmol/mg prot/min | CYP1A2 Fold induction (CYP1A2; [8]): 16 and 18 | CYP1A1 activity (EROD), Mean (CYP1A1; [6]): 1891 pmol/mg prot/min | mean fold induction of CYP1A1 (CYP1A1; group mean, versus water group): 42 | CYP1A1 activity (EROD) (CYP1A1; [7]): 1342 pmol/mg prot/min and 2440 pmol/mg prot/min | CYP1A1 Fold induction (CYP1A1; [8]): 30 and 54

COc1cccc2c1c(O)c(C(=O)Nc1ccc(C(F)(F)F)cc1)c(=O)n2C [ABR-215691]
CYP1A induction (in words) [1]: substantial CYP1A inducing capacity | fold induction at 0.01 µM ([3]; 0.01 μM): 15.1 | fold induction at 0.1 µM ([3]; 0.1 μM): 14.9 | fold induction at 1 µM ([3]; 12-24 hours): 21.3 | water solubility (in words) (Water solubility): extremely low water solubility | solubility (Water solubility): < 0.01 µg/mL
